Data reported in PubChem BioAssay AID602168 (The Scripps Research Institute Molecular Screening Center, 2012).
pIC50: −log10 of the molar value. Active and inactive are the calls of the source. No rule for the calls is given here.

Molecular target: Nuclear receptor coactivator 1 (Homo sapiens) (UniProt Q15788)
Test: SRC1 coactivator transcriptional activity inhibitors, dose response, counter-screen for SRC3 inhibitor project, cell-based, luminescence (AID 602168)
Conditions: Cell-based SRC1 luciferase reporter

Chain of Nuclear receptor coactivator 1 (Homo sapiens) (Q15788 whole entry, looked up): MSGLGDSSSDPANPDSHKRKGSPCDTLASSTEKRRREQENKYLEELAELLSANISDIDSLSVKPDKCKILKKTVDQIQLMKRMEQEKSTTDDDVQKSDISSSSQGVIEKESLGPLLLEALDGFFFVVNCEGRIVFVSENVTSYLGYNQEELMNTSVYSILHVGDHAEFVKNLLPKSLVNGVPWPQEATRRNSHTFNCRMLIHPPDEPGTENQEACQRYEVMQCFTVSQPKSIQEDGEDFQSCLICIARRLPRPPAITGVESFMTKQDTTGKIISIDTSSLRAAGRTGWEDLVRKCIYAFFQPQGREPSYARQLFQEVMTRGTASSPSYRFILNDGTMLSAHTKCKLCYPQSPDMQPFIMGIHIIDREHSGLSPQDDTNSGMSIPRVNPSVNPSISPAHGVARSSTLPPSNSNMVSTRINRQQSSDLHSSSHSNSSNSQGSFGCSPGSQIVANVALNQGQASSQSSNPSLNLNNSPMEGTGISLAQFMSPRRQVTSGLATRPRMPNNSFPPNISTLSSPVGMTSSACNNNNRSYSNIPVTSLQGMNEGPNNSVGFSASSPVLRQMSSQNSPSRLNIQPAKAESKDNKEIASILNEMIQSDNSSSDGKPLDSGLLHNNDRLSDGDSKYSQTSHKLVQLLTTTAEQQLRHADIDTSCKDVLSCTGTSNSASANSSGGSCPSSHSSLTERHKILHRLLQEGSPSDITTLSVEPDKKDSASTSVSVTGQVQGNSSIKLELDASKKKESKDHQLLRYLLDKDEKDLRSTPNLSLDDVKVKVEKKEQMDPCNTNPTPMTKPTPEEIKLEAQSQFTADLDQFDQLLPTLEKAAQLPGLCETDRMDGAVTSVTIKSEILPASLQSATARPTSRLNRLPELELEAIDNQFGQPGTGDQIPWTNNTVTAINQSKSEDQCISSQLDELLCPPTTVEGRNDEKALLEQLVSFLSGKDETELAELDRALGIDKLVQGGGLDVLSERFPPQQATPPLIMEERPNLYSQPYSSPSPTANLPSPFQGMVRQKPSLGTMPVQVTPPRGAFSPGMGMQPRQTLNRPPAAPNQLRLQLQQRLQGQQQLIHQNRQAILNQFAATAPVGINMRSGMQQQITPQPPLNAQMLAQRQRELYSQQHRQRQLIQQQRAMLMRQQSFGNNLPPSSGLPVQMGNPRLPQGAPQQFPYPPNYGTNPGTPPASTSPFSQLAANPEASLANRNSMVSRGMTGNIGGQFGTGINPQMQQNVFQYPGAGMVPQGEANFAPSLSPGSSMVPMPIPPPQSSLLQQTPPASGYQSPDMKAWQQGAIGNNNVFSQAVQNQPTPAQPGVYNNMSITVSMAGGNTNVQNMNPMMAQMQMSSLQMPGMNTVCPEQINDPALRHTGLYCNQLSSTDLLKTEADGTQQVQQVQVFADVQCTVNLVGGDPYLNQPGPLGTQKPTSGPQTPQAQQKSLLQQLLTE

Row | Compound | IC50 | pIC50
1 | Cc1c(Cl)cccc1NC(=O)Nc1ccccc1C(N)=O | > 35.9 µM (inactive) | 
2 | Cc1nnc(SC(=O)N2c3ccccc3Sc3ccccc32)s1 | > 35.9 µM (inactive) | 
3 | Cc1ccc(N(CCC#N)C(=O)CCl)cc1C | inactive | 
4 | C=CCn1c(C)cc(C(=O)COc2ccc(C)nc2[N+](=O)[O-])c1C | > 35.9 µM (inactive) | 
5 | c1csc(Cc2nn3c(-c4ccncc4)nnc3s2)c1 | inactive | 
6 | Cc1ccc(C2=NN(C(=O)CCl)C(c3cccs3)C2)o1 (centres undefined) | inactive | 
7 | O=c1[nH]c2ccccc2n1C1CCN(C(c2cc3ccccc3o2)c2nnnn2Cc2ccccc2)CC1 (centres undefined) | inactive | 
8 | NC(=S)N/N=C1\CCSc2ccc(Cl)cc21 | > 35.8 µM (inactive) | 
9 | CCc1ccc(-c2nc(CSCC(=O)NCc3ccco3)c(C)o2)cc1 | > 35.9 µM (inactive) | 
10 | CCC(=O)c1ccc(O)c(CC=C(C)C)c1 | inactive | 
11 | C/C(=N\NC(=S)Nc1cc(S(=O)(=O)N2CCOCC2)ccc1Cl)c1ccccc1F | inactive | 
12 | CN(C)c1ccc(/C=C/c2ccc3ccccc3n2)cc1 | inactive | 
13 | CC(=O)c1cccc(NC(=O)Nc2ccc3c(c2)N(C)C(=O)CS3)c1 | inactive | 
14 | Cc1cccc(C)c1NS(=O)(=O)c1ccc(-c2cnc(C3CC3)o2)cc1 | inactive | 
15 | CN(C)/C=C/C(=O)c1ccc2noc(-c3ccccc3)c2c1 | inactive | 
16 | c1cc2[nH]snc2c2nc(C3CC3)nc12 | inactive | 
17 | O=S(=O)(c1ccc(F)cc1)c1snnc1-c1ccccc1 | > 35.9 µM (inactive) | 
18 | COc1ccc(OC)c(N/C=C/C(=O)c2ccccc2)c1 | inactive | 
19 | Cc1cc(-c2nnc(SCC(=O)Nc3ccccc3C(F)(F)F)o2)c(C)n1-c1ccccc1 | > 35.9 µM (inactive) | 
20 | COc1cc(C(=O)OCC(=O)Nc2sccc2C(N)=O)cc(OC)c1OC | > 35.9 µM (inactive) | 
21 | Cc1ccc2occ(/C=N/NC(=O)[C@@H](N)Cc3ccccc3)c(=O)c2c1 | inactive | 
22 | CN(Cc1cnc2nc(N)nc(N)c2n1)c1ccc(C(=O)N[C@@H](CCC(=O)O)C(=O)O)cc1 | > 35.9 µM (inactive) | 
23 | Cc1ncc(CO)c(/C=N/NC(=O)c2cc3c(s2)CCCC3)c1O | inactive | 
24 | O=C(Nc1ccccc1Oc1ccccc1)c1cc([N+](=O)[O-])ccc1Cl | inactive | 
25 | Cc1ccc(C(=O)Nc2cnc3ccccc3c2)cc1 | inactive | 
26 | COc1cc2c(ccc3cc(OC)c(OC)c(O)c32)cc1O | inactive | 

Row | Compound | IC50 | pIC50
27 | Cc1cccc2sc(NNC(=O)c3ccc(S(=O)(=O)N4CC(C)CC(C)C4)cc3)nc12 (centres undefined) |  | 5.34
28 | CC(C)(C)n1ncc2c(=O)n(CC(=O)OCc3ccccc3)cnc21 | > 35.9 µM (inactive) | 
29 | COc1ccc(/C=C2\CC/C(=C\c3ccc(OC)c(OC)c3)C2=O)cc1OC | > 35.9 µM (inactive) | 
30 | Cc1cc2nccc(-c3ccncc3)n2n1 | inactive | 
31 | CN(C)c1ccc(CNC(=O)CCNS(=O)(=O)c2cc(Br)cnc2N)cc1 | inactive | 
32 | COc1cc(/C=N/NC(N)=S)cc(Br)c1OCc1ccccc1F | inactive | 
33 | COc1ccc(C)cc1NS(=O)(=O)c1ccc(NC(=O)CN(c2cc([N+](=O)[O-])ccc2C)S(C)(=O)=O)cc1 | inactive | 
34 | O=C(OCCC12CC3CC(CC(C3)C1)C2)c1ccc(NCc2cc(O)ccc2O)cc1 | inactive | 
35 | O=c1[nH]c(O)c(N=Nc2ccc3c(c2)OCCO3)c(=O)[nH]1 | > 35.9 µM (inactive) | 
36 | Nc1ncnc(NCc2ccccc2)c1[N+](=O)[O-] | inactive | 
37 | O=C(Nc1cccc(C(F)(F)F)c1)Nc1nnc([C@@H]2C[C@H](O)[C@@H](CO)O2)s1 |  | 5.24
38 | O=C(NC(NC(=S)N1CCOCC1)C(Cl)(Cl)Cl)c1ccc(Cl)cc1 (centres undefined) | inactive | 
39 | COc1ccc2[nH]c(=O)c(CN(CCN3CCCC3)C(=O)Nc3ccccc3Cl)cc2c1 | inactive | 
40 | Brc1ccc2ncc3ccccc3c2c1 | inactive | 
41 | COc1ccc(C(C(=O)NC2CCCCC2)N(C(=O)CCl)c2ccc(OC)cc2)cc1 (centres undefined) | inactive | 
42 | O=C(CCl)N(c1ccccc1)C1CCCCC1 | inactive | 
43 | O=C(COC(=O)c1ccc[nH]c1=O)Nc1ccc(N2CCCCC2)cc1 | > 35.9 µM (inactive) | 
44 | CCOc1ccc(CC(=O)Nc2ccc(NC(=O)c3ccco3)cc2)cc1OCC |  | 5.37
45 | Cc1ccc(C(=O)O/N=C(\N)c2ccccn2)c(Cl)c1 | > 35.9 µM (inactive) | 
46 | Cc1nc([N+](=O)[O-])c(Sc2nc3ccccc3n2C)n1Cc1ccccc1 | > 35.9 µM (inactive) | 
47 | Cc1ccc2nc(-c3ccncc3)c(NC3CCCC3)n2c1 | inactive | 
48 | C(=N\Nc1ccc2ccccc2n1)/c1ccc2c(c1)OCCO2 | inactive | 
49 | CCCC(=O)NC(c1ccc2c(c1)OCO2)c1cc(Cl)c2cccnc2c1O (centres undefined) |  | 5.14
50 | CCn1nc(/C=C/c2ccccc2)nc2c(=O)n(C)c(=O)nc1-2 | > 35.9 µM (inactive) | 
51 | NC(=O)c1cc(Sc2ccccc2)nc2ccccc12 | inactive | 
52 | O=[N+]([O-])c1ccc(N(CCO)CCO)c2c1no[n+]2[O-] | inactive | 

Row | Compound | IC50 | pIC50
53 | C(=N\Nc1nc2ccccc2[nH]1)/c1cccc2cccnc12 | > 35.9 µM (inactive) | 
54 | CC(C)N(c1ccccc1)c1ccc(NC(=O)CCl)cc1 | > 35.8 µM (inactive) | 
55 | O=C(c1ccncc1)N(Cc1cc2ccccc2[nH]c1=O)C1CCCCC1 |  | 5.13
56 | COc1cc(/C=C2\CC(C(C)(C)C)C/C(=C\c3cc(OC)c(OC)c(OC)c3)C2=O)cc(OC)c1OC (centres undefined) | > 35.9 µM (inactive) | 
57 | CCCC(=O)NC(c1ccc(Cl)cc1Cl)c1ccc2cccnc2c1O (centres undefined) |  | 5.22
58 | O=C(Nc1cccnc1)c1ccc(C(=O)Nc2cccnc2)cc1 | > 35.9 µM (inactive) | 
59 | C=C1C(=O)[C@]23C[C@H]1CCC2[C@@]1(C)C(C[C@@H]3O)[C@](C)(C(=O)OC)CC[C@@H]1O (some centres undefined) | inactive | 
60 | CC(=O)N1CCN(c2ncnc3ccccc23)CC1 | inactive | 
61 | COc1ccc(COC(=O)C2=C(C)NC(=O)NC2c2ccc(F)cc2)cc1 (centres undefined) | inactive | 
62 | CNC(=O)c1cccn(Cc2ccc(C(F)(F)F)cc2)c1=O | > 35.8 µM (inactive) | 
63 | COC(=O)c1cccc2c1-c1ccccc1/C2=N/O |  | 5.20
64 | CCOc1ccc(/C=C2\SC(=S)N(CCCC(=O)NCCCN3CCOCC3)C2=O)cc1 | > 35.9 µM (inactive) | 
65 | Cc1ccc(/C=C2/SC(=S)N(CCCC(=O)Nc3ccc(O)cc3)C2=O)cc1 | > 35.9 µM (inactive) | 
66 | CCCCN1C=CC(=C2C(=O)c3ccccc3C2=O)C=C1 | > 35.9 µM (inactive) | 
67 | O=c1[nH]c2ccccc2n1C1CCN(C(c2ccccc2)c2nnnn2Cc2ccccc2)CC1 (centres undefined) | inactive | 
68 | CO[C@@]12[C@@H]3N[C@@H]3CN1C1=C(C(=O)C(N)=C(C)C1=O)[C@@H]2COC(N)=O | > 35.8 µM (inactive) | 
69 | O=S(=O)(/C(=C\c1ccc(C(F)(F)F)cc1)c1nc2ccccc2[nH]1)c1ccccc1 | > 12 µM (inactive) | 
70 | CC(=O)/C(N=Nc1ccc2c(c1)OCCO2)=C(\C)O | > 35.9 µM (inactive) | 
71 | CS(=O)(=O)c1ccc(Sc2nc3ccccc3s2)c([N+](=O)[O-])c1 | > 35.9 µM (inactive) | 
72 | O=C(CCl)NC(Cc1ccccc1)c1ccccc1 (centres undefined) | inactive | 
73 | O=C(CC1CS(=O)(=O)CC1CC(=O)Nc1ccc2c(c1)OCCO2)Nc1ccc2c(c1)OCCO2 (centres undefined) | > 35.9 µM (inactive) | 
74 | C=CCOn1c(C)c(C(C)=O)c2c3nonc3ccc21 |  | 5.04
75 | Cc1ccc(-n2c(Cl)c(Cl)nc(Cl)c2=O)cc1 | inactive | 
76 | Cc1ccc(N=Nc2ccc3ccccc3c2O)cc1 | > 35.9 µM (inactive) | 
77 | CCOC(=O)C(C(C)=O)c1c(Br)c(O)c(O)c2c(C(=O)c3ccc(C)cc3)coc12 (centres undefined) | > 35.9 µM (inactive) | 
78 | CC[C@@]1(O)C(=O)OCc2c1cc1n(c2=O)Cc2cc3c(NC(=O)CN)cccc3nc2-1 |  | 5.42

Row | Compound | IC50 | pIC50
79 | N#Cc1c2ccc(O)cc2n2ccccc12 | inactive | 
80 | COc1ccc(/C=C2/SC(=S)N(CCC(=O)O)C2=O)cc1 | > 35.9 µM (inactive) | 
81 | COc1cc2[nH]c3c(Cl)ncnc3c2cc1OC | > 35.9 µM (inactive) | 
82 | COc1ccc(-n2cnc3c(sc4nccc(N(C)C)c43)c2=O)cc1 | inactive | 
83 | CCn1c2ccccc2c2cnc(N=CN(C)C)c(C#N)c21 | inactive | 
84 | CNc1ncnc(Sc2nc(N)nc3nc[nH]c23)c1[N+](=O)[O-] | > 35.9 µM (inactive) | 
85 | O=C(CCl)Nc1cccc(-c2cnc3ccccc3n2)c1 | inactive | 
86 | C=CCOc1ccc(/C=C2\SC(=S)N(CCC(=O)O)C2=O)cc1 |  | 5.16
87 | COCCNC(=O)c1cc(-c2ccccn2)nc2ccc(S(=O)(=O)N3CCC(C)CC3)cc12 | > 35.9 µM (inactive) | 
88 | O=[N+]([O-])c1cccc2c1ccc1ncccc12 | inactive | 
89 | COc1cc(NS(C)(=O)=O)ccc1Nc1c2ccccc2nc2ccccc12 | > 35.9 µM (inactive) | 
90 | CN(C)S(=O)(=O)c1ccc(N2CCN(S(=O)(=O)c3ccc(F)cc3)CC2)c(Cl)c1 | inactive | 
91 | CCCNC(=O)c1nnsc1S(=O)(=O)c1ccc(Cl)cc1 | inactive | 
92 | C=CS(=O)(=O)N(Cc1ccc(Cl)c(Cl)c1)C[C@@H](O)CO | > 35.8 µM (inactive) | 
93 | Cc1c(CC(=O)NCCCC(=O)O)c(=O)oc2cc3c(cc12)CCC(C)(C)O3 |  | 5.04
94 | c1ccc(-c2nnc(-c3ccccn3)nc2NC2CCCCC2)cc1 |  | 5.36
95 | COC(CN(C(=O)CCl)C(C(=O)NC1CCCCC1)c1ccccc1C)OC (centres undefined) | inactive | 
96 | O=C(CC(Nc1ccc(Cl)cc1Cl)C(=O)O)c1ccccc1 (centres undefined) | > 35.9 µM (inactive) | 
97 | Cc1cccc(CN2CCN(C(=O)CCl)CC2)c1 | > 35.9 µM (inactive) | 
98 | COC(=O)c1cc(S(=O)(=O)NCCc2ccc(Cl)cc2)c[nH]1 | inactive | 
99 | O=c1[nH]c2ccccc2n1C1CCN(C(c2cccc3ccccc23)c2nnnn2-c2ccc3c(c2)OCCO3)CC1 (centres undefined) | inactive | 
100 | Cc1ccc(N=c2c([N+](=O)[O-])nn(-c3ccc4c(c3)OCCO4)n2O)cc1F | > 35.9 µM (inactive) | 
101 | O=C(CCl)N1N=C(c2ccco2)CC1c1ccco1 (centres undefined) | > 35.9 µM (inactive) | 
102 | CCCc1c(C)nc2ccccc2c1SCCC#N |  | 5.02
103 | Cc1cccc(NC(=O)c2cc(Cl)ccc2[N+](=O)[O-])c1 | inactive | 
104 | CC(C)(C)c1ccc(Oc2ccc(N)cn2)cc1 | inactive | 
